In US5789444A, “Method of reducing glutamate neurotoxicity with anthranilic acid derivatives” (Washington University, priority 1996, dated 1998):
“Also recorded” adds a separate entry of the source.

How the values were obtained:
[1] = system: NMDA-induced neurotoxicity, mouse cortical cultures; assay: NMDA-mediated excitotoxicity in mixed cortical cultures (neuronal injury by LDH release); format: cell-based
Method: (§1) Cell Culture: Mixed cortical cultures containing both neuronal and glial elements were prepared from fetal mice at 15 day gestation as previously described (Hewett et al., 1993). Glia were plated in Primaria (Falcon) 15 mm multiwell vessels in modified Eagle's medium (MEM, Earle's salts), with 2 mM glutamine, 25 mM glucose, 10% fetal bovine serum, 10% horse serum, and 10 ng/ml epidermal growth factor. Dissociated cortical cells were plated (2.75 hemispheres/10 ml/plate) in a similar medium (with only 5% fetal bovine serum and 5% horse serum) on an established bed of glia (15-30 days in vitro). All cultures were kept at 37° C. in a humidified 5% CO2 -containing atmosphere. After 3-7 days in vitro, glial cell division was halted by 2 days of exposure to 10 μM cytosine arabinoside. Cells were subsequently shifted into maintenance medium which was identical to the plating medium, but lacked fetal bovine serum. The medium was changed twice weekly. Experiments were performed on cortical cultures after 14 days in vitro.
Drug Exposure: Cells were exposed to NMDA for 5 min either alone or in the presence of test compound at room temperature in a HEPES controlled salt solution (HCSS), containing (mM): NaCl, 120; KCl, 5.4; MgCl2, 0.8; CaCl2, 1.8; HEPES, 20; glucose, 15, and glycine, 0.01 (pH 7.4). The exposure solution was then washed away and replaced by MEM (Earle's salts) supplemented with glycine (0.01 mM) and the cells returned to the incubator for 20-24 hr.
Since the neurotoxicity of NMDA preparations can vary from lot to lot, the concentration of NMDA used was determined empirically in a separate benchmarking test. Cells were exposed as described above to increasing concentrations of NMDA, and neuronal injury is assessed as described below. A dose/response curve is plotted, and a concentration which induces death in 50-70% of the neuronal population after 24 hours is used as the test concentration for evaluating compounds as neuroprotective drugs.
Assessment of Neuronal Cell Injury: Neuronal cell death was estimated by examination of cultures under phase-contrast microscopy, and quantified by measurement of lactate dehydrogenase (LDH) released by damaged or destroyed cells into the bathing medium one day following experimentation (Koh, J. Y. and Choi, D. W., 1987). The LDH signal corresponding to near-complete neuronal death was determined by assaying the supernatant of sister cultures which were exposed to 500 μM NMDA for 24 hr in MEM supplemented with 10 μM glycine. Background LDH levels (generally <15% of total neuronal) were determined in sister cultures subjected to sham wash and subtracted from the levels in experimental conditions to yield the LDH signal specific to experimental injury.
Mouse cortical cultures were exposed for 5 min to NMDA (100 μM) alone or in the presence of increasing concentrations of meclofenamate sodium, as described under Experimental Procedures, above. Values represent the mean LDH±SEM (n=5-7) scaled to the mean LDH found in control injury (=100).
Mouse cortical cultures were exposed, as described in Example 1, for 5 min to solutions containing increasing concentrations of NMDA or NMDA plus 300 μM meclofenamate. LDH activity was assessed 20-24 hr later. Data are expressed as the percentage of total LDH released (mean ±SEM; n=10). Total LDH was determined by assaying the supernatant of sister cultures which were incubated with 500 μM NMDA for 24 hr. An asterisk indicates difference form untreated controls as determined by repeated measures Analysis of Variance ("ANOVA") followed by Bonferroni's t-test for multiple comparisons (p<0.01).
Cells were exposed to NMDA (100-200 μM) (as described previously) both in the presence and absence of cyclooxygenase/lipooxygenase inhibitors. Data represents the mean LDH±SEM scaled to the mean LDH found in control injury (NMDA alone=100). Data were analyzed via ANOVA followed by Dunnett's t-test for multiple comparisons.

[2] = system: voltage-gated calcium channels; assay: KCl-stimulated influx of calcium (fura-2 fluorescence videomicroscopy); format: cell-based, mouse; conditions: meclofenamate 300 μM, 60 mM KCl, 5 min; FIG. 5
Method: as §1, with “The medium was changed twice weekly. Experiments were performed on cortical cultures after 14 days in vitro.” left out
Cytosolic Calcium Measurements: Intracellular free calcium was measured using fura-2 fluorescence videomicroscopy. […] Background fluorescence was measured from a cell free region of the coverslip at the end of each experiment and subtracted from each 340 and 380 image. […]
Cells were exposed for 5 minutes, as in Example 1, to 60 mM KCl in the presence and absence of meclofenamate (300 μM). Intracellular free calcium [Ca^2 +]i was measured using fura-2 fluorescence videomicroscopy.

[3] = system: cyclooxygenase and lipoxygenase metabolites; assay: RIA measurements of lipid breakdown products following NMDA exposure; format: cell-based; conditions: data not shown
[4] = system: lipoxygenase/cyclooxygenase; conditions: conclusion of prior studies; cited from earlier work
[5] = system: NMDA-induced 45Ca2+ influx; assay: 45Ca2+ accumulation during NMDA exposure in cortical cultures; format: cell-based, mouse; conditions: NMDA 300 μM, 5 min, increasing concentrations, n=18, FIG. 4
Method: ^45 Ca^2 + accumulation: Mouse cortical cultures were washed with HCSS and then exposed to NMDA (300 μM) alone or in the presence of increasing concentrations of meclofenamate in HCSS containing a trace amount of ^45 Ca^2+ (0.5 μCi/well; NEN, Boston, Mass.). After 5 min the exposure solution was washed out with four rinses of HCSS (750 μl each) and the cells were lysed by addition of 0.2% sodium dodecyl sulfate (SDS) at 37° C. An aliquot of cell lysate was estimated by β-counting.
Mouse cortical cultures were exposed, as in Example 1, for 5 min to NMDA (300 μM) alone or NMDA plus increasing concentrations of meclofenamate in the presence of extracellular ^45 Ca^2+. Values are expressed as mean ±SEM (n=18).

[6] = system: lipid catabolism; conditions: known; cited from earlier work
[7] = system: NMDA receptor; assay: Whole-cell recording of NMDA current in cortical neurons; format: cell-based, mouse
Method: Electrophysiological Recording: NMDA current was recorded at room temperature (25° C.) from DIV 12-20 cortical neurons plated on 35 mm dishes using whole-cell recording (EPC-7, List-Electronic, Germany) under voltage clamp. The data acquisition program, PULSE (HEKA Electronic, Germany), was used to control the voltage clamp, to monitor and to collect current and voltage data on a Macintosh computer (Quatra 950, Apple Computer Corp., USA). The extracellular solution contained (mM): NaCl, 145; KCl, 3; MnCl2, 2; CaCl2, 2; glycine, 0.01; HEPES, 10; TTX, 0.005 and glucose, 5. The recording electrode's internal solution contained (mM) CsCl, 150, ATP-Na, 2, BAPTA, 0.5 and HEPES, 10. All solutions were adjusted to pH 7.3 by Tris buffer. NMDA (100 μM) in the extracellular solution was delivered to the cell by a multi-channel DAD drug delivery system (Adams and List Inc., New York.) To eliminate dilution of drug, meclofenamate was added to the bath medium and NMDA was delivered in an extracellular solution containing the same concentration of drug.
Ten min prior to NMDA (100 μM) application, mouse cortical cells were treated with 300 μM meclofenamate. NMDA current was recorded using whole cell recording techniques. To eliminate dilution of drug, NMDA was delivered to the cell in a solution containing the same concentration of drug as that in the bath.

[8] = system: focal cerebral ischemia, Long Evans male rats; assay: Induced focal cerebral ischemia (MCAO) with reperfusion, cortical infarct volume; format: in vivo, rat
Method: Surgical MCAO occlusion: Focal cerebral ischemia, confined to the cerebral cortex in the right middle cerebral artery territory (MCA) of Long Evans male rats (250-350 g; Charles Rivers, Wilmington, Del.), was induced by temporary ligation of the MCA and both common carotid arteries (CCAs) as described by Chen et al., 1986. The rectal temperature was monitored and maintained at 37.0°±0.5° C. via an electronic temperature controller (Versa-Therm 2156, Cole-Parmer, Chicago, Ill.) linked to a heating lamp. Physiological parameters including plasma blood glucose, arterial blood pressure, and pulse rate were monitored as described previously and maintained within normal range (Liu et al, 1989). Reperfusion was initiated by releasing arterial occlusion affecting all 3 vessels after 90 min of ischemia. Restoration of blood flow in all three arteries was observed directly under the microscope. Rats were treated i.p. with vehicle (control) or meclofenamate (10 mg/kg, i.p.) 15 min before ischemia.. The cortical infarct volume was morphometrically measured after triphenyl tetrazolium chloride stain 24 hr after MCAO.
31 rats underwent middle cerebral artery occlusion (MCAO) followed by reperfusion. Fourteen rats underwent MCAO alone while 17 rats were given intraperitoneal meclofenamate (10 mg/kg) 15 minutes prior to 90 min MCAO.

[9] = Mus musculus, compound 300 μM, NMDA 100-200 μM, mean LDH±SEM, asterisk = significantly different from control, read-out: LDH, % of control (NMDA alone=100)

CCCCCCCCC#CCC#CCC#CCCCC(=O)O [ETI]
LDH, % of control (NMDA alone=100) ([1]; compound 300 μM, NMDA 100-200 μM, mean LDH±SEM, asterisk = significantly different from control): 107 ± 13.0%

CCCCCC#CCC#CCC#CCC#CCCCC(=O)O [ETYA]
activity at 300 µM [1, 9]: 85.1 ± 6.2%

O=c1ccc2cc(O)c(O)cc2o1 [Esculetin]
activity at 300 µM [1, 9]: 117 ± 17.1%

Cc1ccc(Cl)c(Nc2ccccc2C(=O)O)c1Cl [Meclofenamate]
elevation of intracellular calcium produced by KCl stimulation [2]: no effect on the elevation of intracellular calcium produced by KCl stimulation
formation of cyclooxygenase and lipoxygenase metabolites [3]: able to block formation of both cyclooxygenase and lipoxygenase metabolites
activity at 300 µM [1, 9]: 10.8 ± 5.1%
neuronal injury (LDH release) ([1]; given at the same time as NMDA (100 μM, 5 min), increasing concentrations, FIG. 1): dose-dependently decreased neuronal injury
protective effect against NMDA receptor-mediated neurotoxicity ([1]; in vitro, summary in words, listed as meclofenamate sodium): powerful protective effect; also recorded: neuroprotective
neuroprotection over a full concentration-toxicity curve for NMDA ([1]; meclofenamate 300 μM, FIG. 2): Complete neuroprotection
lipoxygenase/cyclooxygenase inhibition [4]: dual lipoxygenase/cyclooxygenase inhibitor
NMDA-induced 45Ca2+ influx / uptake [5]: did not significantly affect uptake at any concentration tested
NMDA-induced 45Ca2+ influx / uptake ([5]; listed as meclofenamate): not significantly altered
inhibition of lipid catabolism [6]: inhibitor of lipid catabolism
NMDA current ([7]; 300 μM, 10 min prior to NMDA (100 μM), whole-cell, FIG. 3): failed to alter the current elicited by application of NMDA
NMDA receptor antagonism ([7]; electrophysiological and radiotracer flux measurements): not an NMDA receptor antagonist
cortical infarct volume ([8]; 10 mg/kg i.p. 15 min prior to 90 min MCAO, 24 hr, control 144.8±8.8, p<0.002): 99.2±9.2 mm^3
neuroprotection in animal model of cerebral ischemia ([8]; in vivo, summary in words): neuroprotective

CC(Cc1ccc(O)c(O)c1)C(C)Cc1ccc(O)c(O)c1 (stereo not drawn) [NDGA]
activity at 30 µM ([1]; Mus musculus, compound 30 μM, NMDA 100-200 μM, mean LDH±SEM, read-out: LDH, % of control (NMDA alone=100)): 101 ± 11%

O=C1CCN(c2ccccc2)N1 [Phenidone]
activity at 300 µM [1, 9]: 58.1 ± 6.7%

CC(C)Cc1ccc(C(C)C(=O)O)cc1 (stereo not drawn) [ibuprofen]
activity at 100 µM ([1]; Mus musculus, compound 100 μM, NMDA 100-200 μM, mean LDH±SEM, asterisk = significantly different from control, read-out: LDH, % of control (NMDA alone=100)): 65.4 ± 3.5%

COc1ccc2cc([C@H](C)C(=O)O)ccc2c1 [naproxen]
activity at 300 µM [1, 9]: 82.5 ± 7.1%
